According to PubChem BioAssay AID686920 (Broad Institute, 2013):
Activity calls are given as the source filed them.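 The calls were made as follows: active = fitted curve reaching 35% inhibition at a dose no higher than twice the top valid tested dose; inconclusive = flat fit with 30 to 70% inhibition, or a poor fit; inactive = the rest, including activity in the opposite direction.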

What follows are compounds tested on A673 NR0B1-luciferase reporter, viability-normalised luminescence (assay: suppressors of NR0B1-promoter luciferase reporter, dose response, EWS/Fli inhibitor project, luciferase luminescence, A673 cells, cherry-pick (AID 686920)).

Row | SMILES | AC35
1 | C[C@H]1CN([C@@H](C)CO)C(=O)Cc2cc(NC(=O)CCC(F)(F)F)ccc2O[C@H]1CN(C)Cc1ccc(C(=O)Nc2ccccc2N)cc1 | 6.66 µM
2 | C[C@H](CO)N1C[C@H](C)[C@@H](CN(C)Cc2ccc(Oc3ccccc3)cc2)Oc2ccc(NS(=O)(=O)c3ccc(Cl)cc3)cc2CC1=O | 22.8 µM
3 | C=CC[n+]1c(-c2ccc(C)cc2)csc1Nc1ccc(NC(C)=O)cc1 | 15.6 µM
4 | CC(C)(C)c1ccc(Oc2ccc(NC(=O)C3CC=CCC3C(=O)O)cc2)cc1 (configuration not stated) | 40.5 µM
5 | C[C@@H]1CCCCO[C@H](CN(C)Cc2ccc(C(F)(F)F)cc2)[C@H](C)CN([C@H](C)CO)C(=O)c2cc(NC(=O)CCCN(C)C)ccc2O1 | 11.9 µM
6 | CC(C)(C)c1ccc(Oc2ccc(N)cn2)cc1 | 1.2 µM
7 | C[C@@H]1CN([C@H](C)CO)S(=O)(=O)c2ccc(C#Cc3ccncc3)cc2O[C@@H]1CN(C)C(=O)Nc1ccc2c(c1)OCO2 | 24.5 µM
8 | OCC1OC(n2cnc3c(NCc4ccco4)ncnc32)C(O)C1O (configuration not stated) | 2.81 µM
9 | Cc1ccc(/C=C/C(=O)N2CCN(S(=O)(=O)c3c(C)c(C)cc(C)c3C)CC2)o1 | 49 µM
10 | CN(C)C(=O)c1cccc(-c2ccc(C3[C@@H]4CN(Cc5nccs5)C[C@H]3N4)cc2)c1 (some centres not stated) | > 68 µM (inactive)
11 | C[C@@H]1CN([C@@H](C)CO)C(=O)c2cccc(NC(=O)Nc3cccc4ccccc34)c2O[C@@H]1CN(C)Cc1ccc(C(=O)Nc2ccccc2N)cc1 | 10.2 µM
12 | N#C[C@@H]1[C@H](c2ccc(C#Cc3ccccc3F)cc2)[C@@H](CO)N1C(=O)c1cccnc1 | 5.46 µM
13 | O=C(Nc1ccc(OC(=O)N2CCCCC2)cc1)N1CCOCC1 | 4.3 µM
14 | Cc1ccc2c(c1)C(=O)N1[C@H]3c4cc(Br)ccc4OC[C@@H]3[C@H](c3ccccc3)[C@]1(C)C(=O)N2 | 13.7 µM
15 | Oc1c(C(c2ccc(Cl)cc2)N2CCCC2)cc(Cl)c2cccnc12 (configuration not stated) | 9.79 µM
16 | COc1ccc(N=C(NN)c2ccc3ccccc3n2)cc1 | 21.8 µM
17 | O=C1C(=O)N(Cc2cccs2)c2ccccc21 | 17 µM
18 | O=C(N/N=C/c1cccs1)c1n[nH]c2c1CCCC2 | 4.03 µM
19 | CN1C(=O)c2cc(NC(=O)c3ccc(C(F)(F)F)cc3)ccc2OC[C@@H]2O[C@@H](CC(=O)NC3Cc4ccccc4C3)CC[C@H]21 | 8.33 µM
20 | O=S(=O)(c1ccc(F)cc1)N1C[C@H]2[C@@H](c3ccccc31)[C@H](CO)N2Cc1ccccc1Cl | 33.7 µM
21 | CCc1ccc(/C=C2\SC(=S)N(CCCC(=O)NC3=NCCS3)C2=O)cc1 | 0.588 µM
22 | C[C@@H]1CN([C@@H](C)CO)S(=O)(=O)c2ccc(C#Cc3ccncc3)cc2O[C@H]1CN(C)C(=O)C1CCOCC1 | 49.8 µM
23 | C#CCOCCOCCOCCNc1nc(N2CCN(C(=O)CCCCCCCCCCNC(=O)Cn3cc(C[C@@H](C)O)nn3)CC2)nc(N2CCN(C(=O)CCCCCCCCCCNC(=O)[C@H](CO)n3cc(CCCSC)nn3)CC2)n1 | 9.81 µM
24 | COC(=O)Cc1ccc(NC(=O)c2ccccc2Cl)cc1 | 2.6 µM
25 | COc1ccc2oc(-c3ccccc3)cc(=O)c2c1 | 8.22 µM

Row | SMILES | AC35
26 | COc1ccc(OC)c(Cc2cnc3nc(N)nc(N)c3c2C)c1 | 0.0922 µM
27 | Nc1nc(=S)c2[nH]cnc2[nH]1 | 2.5 µM
28 | C[C@@H]1CN([C@@H](C)CO)C(=O)c2cccc(NS(=O)(=O)c3ccc(Cl)cc3)c2O[C@@H]1CN(C)Cc1ccc(C(=O)Nc2ccccc2N)cc1 | 5.31 µM
29 | O=c1oc2cc(O)ccc2s1 | 11.8 µM
30 | C[C@]12CC[C@H]3[C@@H](CC[C@]4(O)C[C@@H](O)CC[C@]34C=O)[C@@]1(O)CC[C@@H]2C1=CC(=O)OC1 | 0.626 µM
31 | CC1=NN(c2ccccc2)C(=O)/C1=C\C=C\c1ccccc1 | 6.98 µM
32 | O=C(O)c1ccc2cc(-c3ccccc3)[nH]c2c1 | 6.18 µM
33 | O=C(/C=C/c1cc(Br)ccc1O)c1ccco1 | 10.7 µM
34 | O=C(C1CC1)N1C[C@@H]2N[C@H](C1)C2c1ccc(/C=C/c2ccccc2)cc1 (some centres not stated) | 26.1 µM
35 | C[C@H](CO)N1C[C@H](C)[C@H](CN(C)Cc2ccc(C(=O)Nc3ccccc3N)cc2)Oc2ccc(NC(=O)C3CC3)cc2CC1=O | 37.8 µM
36 | CCC1=Nc2cc(C(=O)NCC3CCCO3)ccc2Sc2ccc(Br)cc21 (configuration not stated) | 6.5 µM
37 | CCOc1cc2[nH]c(=S)n(Cc3ccc(C(=O)NCCN(CC)CC)cc3)c(=O)c2cc1OCC | 31.1 µM
38 | COc1ccc(C=NNc2nc3ccccc3s2)cc1 | 6.43 µM
39 | CC1(C(=O)NCc2ccco2)Cc2c(-c3cccc(C(N)=O)c3)ccnc2O1 (configuration not stated) | 5.37 µM
40 | CN(CCO)c1ccc(/C=N/Nc2nncc3ccccc23)cc1 | 5.2 µM
41 | O=C(O)c1cccc(N/N=C/c2cccs2)c1 | 1.25 µM
42 | O=c1ccc2[n+]([O-])c3ccc(O)cc3oc-2c1 | 3.7 µM
43 | CC(C)N1C/C(=C/c2cccnc2)C(=O)/C(=C/c2cccnc2)C1 | 10.8 µM
44 | COc1ccc(CCCNC(=O)C2Cc3c(-c4ccc5c(c4)OCO5)ccnc3O2)cc1 (configuration not stated) | 10.5 µM
45 | COc1ccc2oc(C(=O)NCCc3ccccc3)c(C)c2c1 | 6.25 µM
46 | C(=N\Nc1ccc2ccccc2n1)/c1ccc2c(c1)OCCO2 | 0.728 µM
47 | Cc1ccc(N2C(=O)c3cccc4c(N)ccc(c34)C2=O)c2cccnc12 | < 0.03 µM
48 | Cc1nc(N)nc(N)c1CCCc1ccc(Cl)c(Cl)c1 | 2.49 µM
49 | O=C1NC2C(=CC(O)C(O)C2O)c2cc3c(cc21)OCO3 (configuration not stated) | 0.429 µM
50 | N#C[C@@H]1[C@H](c2ccc(C#Cc3ccc(F)cc3)cc2)[C@@H](CO)N1C(=O)Nc1ccc(F)cc1 | 5.54 µM

Row | SMILES | AC35
51 | Cc1c(-c2nc(-c3ccc(C(C)(C)C)cc3)no2)n(C)oc1=O | 35.5 µM
52 | Oc1cccc(-c2nnc(-c3cccc(O)c3)nn2)c1 | 7.64 µM
53 | C[C@@H]1CN([C@@H](C)CO)C(=O)c2cc(NC(=O)Nc3ccccc3)ccc2O[C@@H]1CN(C)Cc1ccc(C(=O)Nc2ccccc2N)cc1 | 5.75 µM
54 | O=C1Nc2ccccc2C1=Nc1ccc(Br)cc1 | 15.6 µM
55 | CC(=NNc1ccc2ccccc2n1)c1ccccn1 | 0.597 µM
56 | COC(=O)C1=C(C)N(Cc2cccc(C(F)(F)F)c2)C(=NCc2ccc(OC)cc2)NC1c1cccc(F)c1 (configuration not stated) | 13.2 µM
57 | CCCCCCCCCCCCCCCCn1cc[n+](C)c1 | 10.3 µM
58 | COc1ccc(CN(C)c2ncnc3sccc23)c(OC)c1OC | 10.7 µM
59 | CC(C)(C)c1ccc(/C=N/Nc2ccc(C(=O)O)cc2)cc1 | 2.22 µM
60 | CCCCc1c(Cc2ccccc2)ncn1CCc1ccccc1OC | 20.8 µM
61 | Nc1ccc(-c2cc3ccccc3c(=O)o2)cc1 | 0.485 µM
62 | Cc1ccc2oc(/N=C(\N)NC(=O)C(C)(C)C)nc2c1 | 0.18 µM
63 | CN(C)CC1CCC/C(=C\c2ccc(OC(=O)c3ccc(Cl)cc3)cc2)C1=O (configuration not stated) | 5.76 µM
64 | COc1ccc(NC(=O)N(C)[C@H]2C[C@H]3c4[nH]c5ccccc5c4CCN3C(=O)[C@H]2CO)cc1 | 12 µM
65 | COC(=O)C[C@@H]1CC[C@@H]2[C@@H](COc3ccc(NC(=O)Nc4ccc(C#N)cc4)cc3C(=O)N2C)O1 | 56.2 µM
66 | Cc1ccc(/C=N/Nc2ccnc3cc(Cl)ccc23)c(C)c1 | 15.3 µM
67 | O=C(C[C@H]1C[C@H]2c3cc(NS(=O)(=O)c4ccc(F)cc4)ccc3O[C@H]2[C@H](CO)O1)NCc1ccc(Oc2ccccc2)cc1 | 6.22 µM
68 | Cc1c(Cl)cnc(NC(=O)COC(=O)c2ccc3ncsc3c2)c1Cl | 7.23 µM
69 | COc1ccc(N=C2C(=O)Nc3ccc(C)c(Br)c32)cc1 | 10 µM
70 | CN(C[C@H]1N[C@@H](CO)[C@@H]1c1ccc(C2=CCCC2)cc1)C(=O)c1ccc(F)cc1 | 5.59 µM
71 | C(=NNc1ccc2ccccc2n1)c1ccccn1 | 1.55 µM
72 | C[C@@H]1CN([C@H](C)CO)C(=O)c2cc(N(C)C)ccc2O[C@H]1CN(C)Cc1ccc(C(=O)Nc2ccccc2N)cc1 | 9.4 µM
73 | C[C@@H]1CN([C@@H](C)CO)C(=O)Cc2cc(NC(=O)C3CCCCC3)ccc2O[C@H]1CN(C)Cc1ccc(C(=O)Nc2ccccc2N)cc1 | 29.1 µM
74 | C[C@H]1CN([C@@H](C)CO)C(=O)c2cc(N(C)C)ccc2O[C@H]1CN(C)Cc1ccc(C(=O)Nc2ccccc2N)cc1 | 15 µM
75 | O=C(NC(=O)c1ccccc1)Nc1ccccc1 | 12.8 µM

Row | SMILES | AC35
76 | C[C@@H]1CN([C@@H](C)CO)C(=O)c2cc(NS(=O)(=O)c3ccccc3)ccc2O[C@@H]1CN(C)Cc1ccc(C(=O)Nc2ccccc2N)cc1 | 9.16 µM
77 | COc1cc2c(OC(C)=O)c3c(c(-c4ccc5c(c4)OCO5)c2cc1OC)C(=O)OC3 | 2.34 µM
78 | CC(=O)Nc1cccc(-c2ccnc3c2CC(C)(C(=O)NCc2ccc(N(C)C)cc2)O3)c1 (configuration not stated) | 7.51 µM
79 | COc1ccc(NC(=O)c2cc3ccccc3oc2=O)cc1 | 2.99 µM
80 | COc1ccc(S(=O)(=O)Nc2ccc3c(c2)C(=O)N([C@H](C)CO)C[C@@H](C)[C@@H](CN(C)CC2CCCCC2)OCCCC[C@H](C)O3)cc1 | 14.2 µM
81 | CC(C)NC(=O)N(C)C[C@@H]1Oc2cc(C#Cc3ccc(F)cc3)ccc2S(=O)(=O)N([C@H](C)CO)C[C@H]1C | 33.9 µM
82 | CN(C)c1ccc(N=Nc2ccccc2Br)cc1 | 21.3 µM
83 | C[C@H]1CN([C@@H](C)CO)C(=O)Cc2cc(NC(=O)CCCCCC(=O)Nc3ccccc3N)ccc2O[C@H]1CN(C)Cc1ccc(Oc2ccccc2)cc1 | 5.63 µM
84 | CC(=O)OC1CC2(O)C3CCC4CC(O)CCC4(C)C3CCC2(C)C1C1=CC(=O)OC1 (configuration not stated) | 0.231 µM
85 | C=CCn1c(O)c(N=Nc2ccccc2)c2ccccc21 | 38.9 µM
86 | C=C1C(=O)O[C@@H]2[C@H]1[C@@H](OC(=O)/C(C)=C/C)C/C(C)=C\C(=O)/C=C(\C)[C@@H]2O | 8.09 µM
87 | C[C@@H]1CN([C@H](C)CO)C(=O)c2cc(C#CCN(C)C)cnc2O[C@H]1CN(C)Cc1ccc(-c2ccccc2)cc1 | 10.9 µM
88 | C(=Cc1c[nH]c2ccccc12)c1ccc2ccccc2n1 | 2.22 µM
89 | CC(C)N1C/C(=C/c2ccsc2)C(=O)/C(=C/c2ccsc2)C1 | 5.52 µM
90 | C[C@H](CO)N1C[C@H](C)[C@H](CN(C)Cc2ccc(C(F)(F)F)cc2)Oc2c(NS(=O)(=O)c3ccc(Cl)cc3)cccc2C1=O | 43.4 µM
91 | C(=Cc1cnc2ccccc2n1)c1ccc2c(c1)OCO2 | 1.12 µM
92 | C=C1C(=O)OC2C1CCC(C)C1C=CC(=O)C12C (configuration not stated) | 15.5 µM
93 | OCC1OC(n2ccc3c2ncn2ncnc32)C(O)C1O (configuration not stated) | 1.01 µM
94 | CCOC(=O)[C@]12Cc3ccc(C)cc3[C@H]1N(C1CCCCC1)C(=O)c1ccccc12 | 5.49 µM
95 | CC(C)CC(NC(=O)c1cccs1)c1nnc(SCc2ccc(Cl)c(Cl)c2)n1C (configuration not stated) | 39.5 µM
96 | O=C(/C=C/c1ccc(Cl)cc1Cl)N(Cc1ccc(Cl)cc1)C1CCS(=O)(=O)C1 (configuration not stated) | 33.5 µM
97 | OCCN1CCN(C(=S)c2ccc(-c3ccccc3)cc2)CC1 | 1.94 µM
